Columns and labels:
Type in all cases: in vivo
[1] = test system: winter barley (Hordeum vulgare); assay: Test B postemergence plant response; conditions: Postemergence
How it was run: (§1)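 Visual injury score from 0 (none) to 100 (complete control) versus controls, taken 13 to 15 days after treatment in the greenhouse; chemicals applied postemergence, as formulated, to plants of 1- to 4-leaf stage (2 to 18 cm tall); dash denotes no test result.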

[2] = test system: windgrass (Apera spica-venti); assay: Test B postemergence plant response; conditions: Postemergence
How it was run: as §1

[3] = test system: chickweed (Stellaria media); assay: Test B postemergence plant response; conditions: Postemergence
How it was run: as §1

[4] = test system: canarygrass (Phalaris minor); assay: Test B postemergence plant response; conditions: Postemergence
How it was run: as §1

[5] = test system: Italian ryegrass (Lolium multiflorum); assay: Test B pre-/postemergence plant response
Description: (§2) Seeds of plant species selected from blackgrass (Alopecurus myosuroides), downy bromegrass (Bromus tectorum), green foxtail (Setaria viridis), Italian ryegrass (Lolium multiflorum), wheat (Triticum aestivum), wild oat (Avena fatua), catchweed bedstraw (Galium aparine), bermudagrass (Cynodon dactylon), surinam grass (Brachiaria decumbens), cocklebur (Xanthium strumarium), corn (Zea mays), large crabgrass (Digitaria sanguinalis), woolly cupgrass (Eriochloa villosa), giant foxtail (Setaria faberii), goosegrass (Eleusine indica), johnsongrass (Sorghum halepense), kochia (Kochia scoparia), lambsquarters (Chenopodium album), morningglory (Ipomoea coccinea), eastern black (E.B.) nightshade (Solanum ptycanthum), yellow nutsedge (Cyperus esculentus), pigweed (Amaranthus retroflexus), common ragweed (Ambrosia elation), Russian thistle (Salsola iberica), soybean (Glycine max), common (oilseed) sunflower (Helianthus annuus), and velvetleaf (Abutilon theophrasti) were planted and treated preemergence with test chemicals formulated in a non-phytotoxic solvent mixture which included a surfactant.
(§3) At the same time, plants selected from these crop and weed species and also winter barley (Hordeum vulgare), canarygrass (Phalaris minor), chickweed (Stellaria media) and windgrass (Apera spica-venti) were treated with postemergence applications of some of the test chemicals formulated in the same manner. Plants ranged in height from 2 to 18 cm (1- to 4-leaf stage) for postemergence treatments.
(§4) Plant species in the flooded paddy test consisted of rice (Oryza sativa), umbrella sedge (Cyperus difformis), ducksalad (Heteranthera limosa) and barnyardgrass (Echinochloa crus-galli) grown to the 2-leaf stage for testing. At time of treatment, test pots were flooded to 3 cm above the soil surface, treated by application of test compounds directly to the paddy water, and then maintained at that water depth for the duration of the test. Treated plants and controls were maintained in a greenhouse for 13 to 15 days, after which time all species were compared to controls and visually evaluated. Plant response ratings, summarized in Table B, are based on a scale of 0 to 100 where 0 is no effect and 100 is complete control. A dash (-) response means no test result.

[6] = test system: lambsquarters (Chenopodium album); assay: Test B pre-/postemergence plant response
Description: as §2, §3, §4

[7] = test system: morningglory (Ipomoea coccinea); assay: Test B pre-/postemergence plant response
Description: as §2, §3, §4

[8] = test system: downy bromegrass (Bromus tectorum); assay: Test B pre-/postemergence plant response
Description: as §2, §3, §4

[9] = test system: bermudagrass (Cynodon dactylon); assay: Test B pre-/postemergence plant response
Description: as §2, §3, §4

[10] = test system: pigweed (Amaranthus retroflexus); assay: Test B pre-/postemergence plant response
Description: as §2, §3, §4

[11] = test system: soybean (Glycine max); assay: Test B pre-/postemergence plant response
Description: as §2, §3, §4

[12] = test system: common (oilseed) sunflower (Helianthus annuus); assay: Test B pre-/postemergence plant response; conditions: Preemergence
Description: as §2, §3, §4

[13] = test system: giant foxtail (Setaria faberii); assay: Test B pre-/postemergence plant response
Description: as §2, §3, §4

[14] = test system: wheat (Triticum aestivum); assay: Test B pre-/postemergence plant response
Description: as §2, §3, §4

[15] = test system: surinam grass (Brachiaria decumbens); assay: Test B pre-/postemergence plant response
Description: as §2, §3, §4

[16] = 31 g ai/ha, scale 0 to 100, 0 no effect, 100 complete control
[17] = Postemergence, 31 g ai/ha, scale 0 to 100, 0 no effect, 100 complete control
[18] = Postemergence, 62 g ai/ha, scale 0 to 100
[19] = Postemergence, 125 g ai/ha, scale 0 to 100
[20] = Postemergence, 250 g ai/ha, scale 0 to 100
[21] = Preemergence, 31 g ai/ha, 0 to 100 scale, 0 no effect, 100 complete control
[22] = Preemergence, 62 g ai/ha, scale 0 to 100
[23] = Preemergence, 125 g ai/ha, scale 0 to 100
[24] = Preemergence, 250 g ai/ha, scale 0 to 100

## Cc1cc(-c2ccc(Br)cc2)nn1-c1c(O)cnn(C)c1=O [Compound 4]
[1]; [16]
  Plant response rating, Barley: 0
[1]; 62 g ai/ha, scale 0 to 100
  Plant response rating, Barley: 10
[1]; 125 g ai/ha, scale 0 to 100
  Plant response rating, Barley: 90
[1]; 250 g ai/ha, scale 0 to 100
  Plant response rating, Barley: 95
[2]; [16]
  Plant response rating, Windgrass: 90
[2]; 62 g ai/ha, scale 0 to 100
  Plant response rating, Windgrass: 100
[2]; 125 g ai/ha, scale 0 to 100
  Plant response rating, Windgrass: 100
[2]; 250 g ai/ha, scale 0 to 100
  Plant response rating, Windgrass: 100
[3]; [16]
  Plant response rating, Chickweed: 0
[3]; 62 g ai/ha, scale 0 to 100
  Plant response rating, Chickweed: 0
[3]; 125 g ai/ha, scale 0 to 100
  Plant response rating, Chickweed: 0
[3]; 250 g ai/ha, scale 0 to 100
  Plant response rating, Chickweed: 20
[4]; [16]
  Plant response rating, Canarygrass: 80
[4]; 62 g ai/ha, scale 0 to 100
  Plant response rating, Canarygrass: 90
[4]; 125 g ai/ha, scale 0 to 100
  Plant response rating, Canarygrass: 100
[4]; 250 g ai/ha, scale 0 to 100
  Plant response rating, Canarygrass: 100
[5]; [17]
  Plant response rating, Ryegrass, Italian: 100
[5]; [18]
  Plant response rating, Ryegrass, Italian: 100
[5]; [19]
  Plant response rating, Ryegrass, Italian: 100
[5]; [20]
  Plant response rating, Ryegrass, Italian: 100
[5]; [21]
  Plant response rating, Ryegrass, Italian: 100
[5]; [22]
  Plant response rating, Ryegrass, Italian: 100
[5]; [23]
  Plant response rating, Ryegrass, Italian: 100
[5]; [24]
  Plant response rating, Ryegrass, Italian: 100
[6]; [17]
  Plant response rating, Lambsquarters: 0
[6]; [18]
  Plant response rating, Lambsquarters: 0
[6]; [19]
  Plant response rating, Lambsquarters: 60
[6]; [20]
  Plant response rating, Lambsquarters: 80
[6]; [22]
  Plant response rating, Lambsquarters: 85
[6]; [23]
  Plant response rating, Lambsquarters: 85
[6]; [24]
  Plant response rating, Lambsquarters: 90
[7]; [17]
  Plant response rating, Morningglory: 0
[7]; [18]
  Plant response rating, Morningglory: 0
[7]; [19]
  Plant response rating, Morningglory: 0
[7]; [20]
  Plant response rating, Morningglory: 0
[7]; [21]
  Plant response rating, Morningglory: 0
[7]; [22]
  Plant response rating, Morningglory: 0
[7]; [23]
  Plant response rating, Morningglory: 0
[7]; [24]
  Plant response rating, Morningglory: 30
[8]; [17]
  Plant response rating, Bromegrass, Downy: 0
[8]; [18]
  Plant response rating, Bromegrass, Downy: 5
[8]; [19]
  Plant response rating, Bromegrass, Downy: 20
[8]; [20]
  Plant response rating, Bromegrass, Downy: 40
[8]; [21]
  Plant response rating, Bromegrass, Downy: 70
[8]; [22]
  Plant response rating, Bromegrass, Downy: 70
[8]; [23]
  Plant response rating, Bromegrass, Downy: 98
[8]; Preemergence, 250 g ai/ha, scale 0 to 100 (0 no effect, 100 complete control)
  Plant response rating, Bromegrass, Downy: 100
[9]; 250 g ai/ha, preemergence, 0-100 scale
  Bermudagrass plant response rating: 100
[9]; [17]
  Plant response rating, Bermudagrass: 100
[9]; [18]
  Plant response rating, Bermudagrass: 100
[9]; [19]
  Plant response rating, Bermudagrass: 100
[9]; [20]
  Plant response rating, Bermudagrass: 100
[9]; [21]
  Plant response rating, Bermudagrass: 100
[9]; [22]
  Plant response rating, Bermudagrass: 100
[9]; [23]
  Plant response rating, Bermudagrass: 100
[10]; [17]
  Plant response rating, Pigweed: 0
[10]; [18]
  Plant response rating, Pigweed: 0
[10]; [19]
  Plant response rating, Pigweed: 35
[10]; [20]
  Plant response rating, Pigweed: 50
[10]; [24]
  Plant response rating, Pigweed: 0
[11]; [17]
  Plant response rating, Soybean: 20
[11]; [18]
  Plant response rating, Soybean: 30
[11]; [19]
  Plant response rating, Soybean: 90
[11]; [20]
  Plant response rating, Soybean: 90
[11]; [21]
  Plant response rating, Soybean: 0
[11]; [22]
  Plant response rating, Soybean: 0
[11]; [23]
  Plant response rating, Soybean: 0
[11]; [24]
  Plant response rating, Soybean: 20
[12]; 31 g ai/ha, 0 to 100 scale, 0 no effect, 100 complete control
  Plant response rating, Sunflower: 0
[12]; 62 g ai/ha, scale 0 to 100
  Plant response rating, Sunflower: 0
[12]; 125 g ai/ha, scale 0 to 100
  Plant response rating, Sunflower: 0
[12]; 250 g ai/ha, scale 0 to 100
  Plant response rating, Sunflower: 70
[13]; [17]
  Plant response rating, Foxtail, Giant: 100
[13]; [18]
  Plant response rating, Foxtail, Giant: 100
[13]; [19]
  Plant response rating, Foxtail, Giant: 100
[13]; [20]
  Plant response rating, Foxtail, Giant: 100
[13]; [21]
  Plant response rating, Foxtail, Giant: 100
[13]; [22]
  Plant response rating, Foxtail, Giant: 100
[13]; [23]
  Plant response rating, Foxtail, Giant: 100
[13]; [24]
  Plant response rating, Foxtail, Giant: 100
[14]; [17]
  Plant response rating, Wheat: 90
[14]; [18]
  Plant response rating, Wheat: 100
[14]; [19]
  Plant response rating, Wheat: 100
[14]; [20]
  Plant response rating, Wheat: 100
[14]; [21]
  Plant response rating, Wheat: 60
[14]; [22]
  Plant response rating, Wheat: 95
[14]; [23]
  Plant response rating, Wheat: 100
[14]; [24]
  Plant response rating, Wheat: 100
[15]; [17]
  Plant response rating, Surinam Grass: 100
[15]; [18]
  Plant response rating, Surinam Grass: 100
[15]; [19]
  Plant response rating, Surinam Grass: 100
[15]; [20]
  Plant response rating, Surinam Grass: 100
[15]; [21]
  Plant response rating, Surinam Grass: 100
[15]; [22]
  Plant response rating, Surinam Grass: 100
[15]; [23]
  Plant response rating, Surinam Grass: 100
[15]; [24]
  Plant response rating, Surinam Grass: 100

Source: patent US20100267561A1, “HERBICIDAL PYRIDAZINONE DERIVATIVES” (priority 2007, published 2010)
